Measurements from patent publication US10064954B2, “Polymer-cyclodextrin-lipid conjugates” (priority 2015, dated 2018).
Counter-ions that a name gives are not always drawn.

Assay: Solubility of marketed Drug Products: cyclodextrin to drug ratio
Settings: CD = hydroxypropyl-β-cyclodextrin

Going from `CC(C)NCC(O)COc1cccc2ccccc12` (stereo not drawn) [Propranolol] to `CN1C(=O)CN=C(c2ccccc2)c2cc(Cl)ccc21` [Diazepam], the “CD/D (mol/mol)” value rises from 10.4 mol/mol to 18.4 mol/mol.

First: CNC(=C[N+](=O)[O-])NCCSCc1ccc(CN(C)C)o1 [Ranitidine HCl]
Second: CN(Cc1cnc2nc(N)nc(N)c2n1)c1ccc(C(=O)N[C@@H](CCC(=O)O)C(=O)O)cc1 [Methotrexate]
The “CD/D (mol/mol)” value of the first is lower: 14.5 mol/mol for the first, 18.3 mol/mol for the second.

Compared with `CCCCCCCCCCNCCN[C@@]1(C)C[C@H](O[C@H]2[C@H](Oc3c4cc5cc3Oc3ccc(cc3Cl)[C@@H](O)[C@@H](NC(=O)[C@@H](CC(C)C)NC)C(=O)N[C@@H](CC(N)=O)C(=O)N[C@H]5C(=O)N[C@H]3C(=O)N[C@H](C(=O)N[C@H](C(=O)O)c5cc(O)c(CNCP(=O)(O)O)c(O)c5-c5cc3ccc5O)[C@H](O)c3ccc(c(Cl)c3)O4)O[C@H](CO)[C@@H](O)[C@@H]2O)O[C@@H](C)[C@H]1O` [Telavancin HCl], `CCC(C)n1ncn(-c2ccc(N3CCN(c4ccc(OCC5COC(Cn6cncn6)(c6ccc(Cl)cc6Cl)O5)cc4)CC3)cc2)c1=O` (stereo not drawn) [Itraconazole] is higher in “CD/D (mol/mol)” value: 12.6 mol/mol for the first, 20.2 mol/mol for the second.

With `O=C(CCCN1CCC(O)(c2ccc(Cl)cc2)CC1)c1ccc(F)cc1` [Haloperidol] the “CD/D (mol/mol)” value was 302.9 mol/mol.

Same assay, conditions: CD = sulfobutyl ether β-cyclodextrin

First: CC[C@@H]([C@H](C)O)n1ncn(-c2ccc(N3CCN(c4ccc(OC[C@@H]5CO[C@@](Cn6cncn6)(c6ccc(F)cc6F)C5)cc4)CC3)cc2)c1=O [Posaconazole]
Second: C[C@@H](c1ncncc1F)[C@](O)(Cn1cncn1)c1ccc(F)cc1F [Voriconazole]
The “CD/D (mol/mol)” value of the first is higher: 6.9 mol/mol for the first, 2.5 mol/mol for the second.

Assay: not given
Format: physicochemical
Settings: not given
Description: 1% (w/v) of propofol was prepared in a saline based solution with different PEG-carbohydrate conjugates. Table 6 listed the minimum concentration of the conjugates required to solublize propofol as a solubility test reference.

First: oleoylpropanediaminelactobionate-mPEG12
Second: 2-hydroxypropyl-β-cyclodextrin
The “Concentration (% w/v)” value of the first is lower: 3.0 % w/v for the first, 30 % w/v for the second.

With “cholesterypropanediaminelactobionate-mPEG12” the “Concentration (% w/v)” value was 3.5 % w/v.
